Data published in patent publication US20160030407A1, “Method of Treating Inflammatory Lung Disease” (priority 2010, published 2016).

Key:
BACE-1 = BACE-1 protein expression in SHSY cells (Western blot); type: cell-based, human; conditions: 24 hours, corrected for actin
[1] = system: phosphorylated p65 (NFκB); experiment: p65 phosphorylation in brain after intracranial TNFα; type: in vivo, mice (B6/SJL); conditions: mice, 2 mg/kg i.p., normalized to actin
Method: After 5 minutes, mice were intracranially injected with 0.5 mg of TNFα. Mice were euthanized ten minutes after the intracranial injection. The portion of the brain surrounding the intracranial site of injection was collected, and proteins were extracted. Phosphorylation of p65 was measured with an antibody towards phosphorylated p65.

[2] = system: antibodies against thyroglobulin; experiment: Autoimmune thyroiditis model (Example 16B): thyroglobulin antibodies; type: in vivo, CBA/J mice; conditions: 0.05 mg/ml in drinking water; day 21
Method: (§1) In another experiment, eighteen CBA/J female mice were immunized with mouse thyroglobulin, emulsified in complete Freund's adjuvant, on day 0 and day 7. One group of mice (n=10) drank regular water. […] Mice were sacrificed 21 days after the first immunization to collect the thyroid gland and the blood. The thyroid was analyzed for the presence of infiltrating mononuclear cells. The blood was analyzed for the levels of antibodies against thyroglobulin.

nAChR α4/β2 = molecular target: T1, nAChR α4/β2 (Homo sapiens, UniProt P17787+P43681); experiment: nAChR α4/β2 channel agonist assay (FLIPR); type: cell-based; conditions: 0.3-1000 μM
T1 construct: host or cells: HEK293 cells, transient
T1 sequence (P43681 29-627): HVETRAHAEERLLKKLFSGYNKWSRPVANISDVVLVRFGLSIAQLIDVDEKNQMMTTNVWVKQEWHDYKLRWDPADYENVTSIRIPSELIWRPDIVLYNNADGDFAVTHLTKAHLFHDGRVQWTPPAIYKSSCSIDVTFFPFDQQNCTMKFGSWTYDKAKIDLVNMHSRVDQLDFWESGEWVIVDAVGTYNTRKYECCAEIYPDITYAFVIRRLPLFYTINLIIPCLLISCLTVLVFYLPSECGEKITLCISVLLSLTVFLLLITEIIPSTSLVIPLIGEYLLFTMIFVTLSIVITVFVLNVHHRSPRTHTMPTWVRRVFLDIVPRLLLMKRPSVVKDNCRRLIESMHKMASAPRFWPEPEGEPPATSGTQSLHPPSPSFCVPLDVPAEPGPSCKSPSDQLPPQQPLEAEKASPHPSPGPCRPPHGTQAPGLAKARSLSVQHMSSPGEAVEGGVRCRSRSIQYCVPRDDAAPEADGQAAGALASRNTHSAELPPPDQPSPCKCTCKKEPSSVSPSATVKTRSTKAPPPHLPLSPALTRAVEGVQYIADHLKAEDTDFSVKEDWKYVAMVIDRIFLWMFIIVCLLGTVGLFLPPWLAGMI
T1 sequence (P17787 26-502): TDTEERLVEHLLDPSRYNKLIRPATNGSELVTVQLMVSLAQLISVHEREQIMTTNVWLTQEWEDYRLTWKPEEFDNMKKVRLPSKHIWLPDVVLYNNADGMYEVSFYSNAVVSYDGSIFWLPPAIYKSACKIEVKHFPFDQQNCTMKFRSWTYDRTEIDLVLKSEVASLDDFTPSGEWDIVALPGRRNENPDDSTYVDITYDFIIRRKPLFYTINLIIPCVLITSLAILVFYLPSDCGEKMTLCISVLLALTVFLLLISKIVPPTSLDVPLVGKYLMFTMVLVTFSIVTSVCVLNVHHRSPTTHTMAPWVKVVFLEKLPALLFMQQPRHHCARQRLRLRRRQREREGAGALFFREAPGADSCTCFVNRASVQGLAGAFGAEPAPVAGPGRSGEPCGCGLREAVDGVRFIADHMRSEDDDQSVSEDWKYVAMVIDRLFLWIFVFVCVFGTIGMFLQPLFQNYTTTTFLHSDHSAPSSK
Method: (§2) Briefly, cells were incubated with […] dye for 30 min at 37° C.

autoimmune thyroiditis = experiment: Autoimmune thyroiditis model (Example 16B): thyroid histopathology; type: in vivo, CBA/J mice; conditions: 0.05 mg/ml in drinking water; day 21; p=0.023
Method: as §1

[3] = system: antibodies to PPD and thyroglobulin; experiment: Experimental Autoimmune Thyroiditis (Example 16A): serum antibodies to PPD and thyroglobulin; type: in vivo, mice
Method: (§3) Thyroiditis was induced by injection of thyroglobulin emulsified in complete Freund's adjuvant […]. On days 0 and 7, female mice received subcutaneous injection of 100 μg thyroglobulin (2 injections of 50 μg each). Control mice drank water. […] Mice were sacrificed on day 21.
Serum from control and anatabine-treated mice was examined to determine levels of antibodies to a foreign antigen (PPD).
Levels of antibodies to thyroglobulin were examined on days 7, 14, and 21 after immunization.

nAChR α3/β4 [4] = molecular target: T2, nAChR α3/β4 (Homo sapiens, UniProt P30926+P32297); experiment: nAChR α3/β4 channel agonist assay (FLIPR); type: cell-based; conditions: 0.3-1000 μM
T2 sequence (P32297 32-505): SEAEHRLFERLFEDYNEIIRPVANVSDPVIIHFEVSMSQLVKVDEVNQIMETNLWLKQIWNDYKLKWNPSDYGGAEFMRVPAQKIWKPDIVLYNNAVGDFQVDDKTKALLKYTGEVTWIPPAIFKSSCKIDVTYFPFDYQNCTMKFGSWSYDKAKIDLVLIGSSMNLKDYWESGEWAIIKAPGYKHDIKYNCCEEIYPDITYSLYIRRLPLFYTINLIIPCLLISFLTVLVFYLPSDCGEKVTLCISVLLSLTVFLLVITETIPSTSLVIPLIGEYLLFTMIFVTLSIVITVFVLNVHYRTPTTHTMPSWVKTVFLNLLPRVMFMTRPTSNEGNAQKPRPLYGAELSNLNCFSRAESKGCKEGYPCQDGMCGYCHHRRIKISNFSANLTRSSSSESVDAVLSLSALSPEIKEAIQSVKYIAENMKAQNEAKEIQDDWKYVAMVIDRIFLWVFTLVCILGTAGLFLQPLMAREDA
T2 sequence (P30926 22-498): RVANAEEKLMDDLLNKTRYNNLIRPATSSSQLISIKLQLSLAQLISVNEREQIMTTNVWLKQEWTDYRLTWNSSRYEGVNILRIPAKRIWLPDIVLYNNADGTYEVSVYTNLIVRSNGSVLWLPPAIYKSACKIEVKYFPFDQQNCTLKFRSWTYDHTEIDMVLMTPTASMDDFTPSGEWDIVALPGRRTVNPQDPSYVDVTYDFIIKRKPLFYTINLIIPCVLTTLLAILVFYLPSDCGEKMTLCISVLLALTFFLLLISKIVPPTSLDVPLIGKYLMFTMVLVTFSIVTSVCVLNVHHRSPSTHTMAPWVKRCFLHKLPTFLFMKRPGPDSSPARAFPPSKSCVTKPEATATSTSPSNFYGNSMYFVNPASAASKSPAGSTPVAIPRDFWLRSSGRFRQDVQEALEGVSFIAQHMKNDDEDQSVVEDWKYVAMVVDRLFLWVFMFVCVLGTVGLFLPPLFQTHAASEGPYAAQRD
Method: as §2

IL-1β = experiment: LPS-induced IL-1β release in whole human blood; type: cell-based
Method: Whole human blood was treated with LPS to stimulate inflammatory responses. […] The inflammatory molecule IL-1β was measured after 16 hours.

BACE-1 mRNA = BACE-1 mRNA levels in SHSY cells (RTPCR); type: cell-based, human; conditions: 30 minutes, TNF-α used to increase BACE expression
Text: TNF-α was used to increase BACE expression.

[5] = system: T cells, antigen presentation; experiment: Experimental Autoimmune Thyroiditis (Example 16A): lymphoid typing by flow cytometry; type: in vivo, mice; conditions: p=0.0143
Method: as §3
Cervical lymph nodes were removed for lymphoid typing by flow cytometry. Spleen and peritoneal macrophages were removed for ex vivo stimulation.

[6] = Treatment of a patient with autism and a seizure disorder; type: in vivo, human; conditions: one patient, 1.0 mg three times per day
Text: A patient, who was diagnosed with autism and a seizure disorder, had brain surgery and began rehabilitation the following month.

nAChR α3/β4 [7] = molecular target: T2, nAChR α3/β4; experiment: cell-based; conditions: read-out: Normalized % Inhibition
Method: as §2

SMILES: C1=CCC(c2cccnc2)NC1 (racemic) [Anatabine, 1,2,3,6-tetrahydro-[2,3′]bipyridinyl]
- BACE-1 protein expression (BACE-1): reduced BACE expression
- p65 phosphorylation in brain [1]: reduced p65 phosphorylation in mouse brain
- levels of thyroglobulin antibodies [2]: no effect on the levels of thyroglobulin antibodies
- agonist activity (nAChR α4/β2): full agonist activity
- frequency and severity of thyroiditis (autoimmune thyroiditis): developed thyroiditis less frequently and of lower severity
- antibodies to PPD vs control ([3]; 0.05 mg/ml in drinking water): no significant difference
- antibodies to thyroglobulin vs control ([3]; day 7): no significant difference
- antibodies to thyroglobulin vs control ([3]; day 14, p=0.086): tended to have lower thyroglobulin antibodies
- antibodies to thyroglobulin vs control ([3]; day 21): no significant difference
- agonist activity (nAChR α3/β4 [4]): showed agonist activity
- IL-1β production over time (IL-1β; whole human blood + LPS (Example 15)): rapid and continuous effect on the suppression
- accumulation of IL-1β (IL-1β; whole human blood + LPS, 16 hours (Example 13)): reduced accumulation of IL-1β
- IL-1β, area under the dose-response curve (IL-1β; whole human blood + LPS, 16 hours (Example 14)): reduced accumulation of IL-1β
- BACE-1 mRNA expression (BACE-1 mRNA): reduced this signal in a concentration-dependent manner
- activated T cells vs control ([5]; cervical lymph nodes): fewer activated T cells
- regulatory T cells vs control ([5]; cervical lymph nodes): more regulatory T cells
- regulatory T cells vs control ([5]; cervical lymph nodes, listed as anatabine): fewer T regulatory cells than control mice
- ability to present antigens vs control [5]: a lower ability to present antigens
- cognitive benefits [6]: improved communication and language skills and the ability to focus
- frequency of seizures ([6]; over 3 weeks): decreased from one per day to approximately one per week

SMILES: CN1CCCC1c1cccnc1.O=C(O)C(O)C(O)C(=O)O (single isomer, unassigned; (-)) [Nicotine, (−) Nicotine hydrogen tartrate, reference compound]
- inhibition at 0.3 µM (nAChR α3/β4 [7]): 19.1%
- inhibition at 1 µM (nAChR α3/β4 [7]): 19%
- inhibition at 10 µM (nAChR α3/β4 [7]): 95.8%
- inhibition at 30 µM (nAChR α3/β4 [7]): 139%
- inhibition at 100 µM (nAChR α3/β4 [7]): 145%
- inhibition at 300 µM (nAChR α3/β4 [7]): 144%
- inhibition at 1000 µM (nAChR α3/β4 [7]): 142%
